Experiments:
[1] = target: T1, macrophage inhibitory factor (MIF) (Homo sapiens, UniProt P14174); conditions: Cho et al., PNAS-USA 2010; cited from earlier work
T1 sequence (P14174 2-115 limits assumed): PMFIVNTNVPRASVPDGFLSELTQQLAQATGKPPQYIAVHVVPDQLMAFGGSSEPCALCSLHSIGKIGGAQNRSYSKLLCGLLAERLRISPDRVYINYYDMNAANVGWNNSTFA

[2] = Sanftner et al Xenobiotica 2009; cited from earlier work
[3] = target: PDE 3A (Homo sapiens, UniProt Q14432); conditions: Gibson et al., Eur. J. Pharmacol. 2006; cited from earlier work
Chain of PDE 3A (Q14432 whole entry): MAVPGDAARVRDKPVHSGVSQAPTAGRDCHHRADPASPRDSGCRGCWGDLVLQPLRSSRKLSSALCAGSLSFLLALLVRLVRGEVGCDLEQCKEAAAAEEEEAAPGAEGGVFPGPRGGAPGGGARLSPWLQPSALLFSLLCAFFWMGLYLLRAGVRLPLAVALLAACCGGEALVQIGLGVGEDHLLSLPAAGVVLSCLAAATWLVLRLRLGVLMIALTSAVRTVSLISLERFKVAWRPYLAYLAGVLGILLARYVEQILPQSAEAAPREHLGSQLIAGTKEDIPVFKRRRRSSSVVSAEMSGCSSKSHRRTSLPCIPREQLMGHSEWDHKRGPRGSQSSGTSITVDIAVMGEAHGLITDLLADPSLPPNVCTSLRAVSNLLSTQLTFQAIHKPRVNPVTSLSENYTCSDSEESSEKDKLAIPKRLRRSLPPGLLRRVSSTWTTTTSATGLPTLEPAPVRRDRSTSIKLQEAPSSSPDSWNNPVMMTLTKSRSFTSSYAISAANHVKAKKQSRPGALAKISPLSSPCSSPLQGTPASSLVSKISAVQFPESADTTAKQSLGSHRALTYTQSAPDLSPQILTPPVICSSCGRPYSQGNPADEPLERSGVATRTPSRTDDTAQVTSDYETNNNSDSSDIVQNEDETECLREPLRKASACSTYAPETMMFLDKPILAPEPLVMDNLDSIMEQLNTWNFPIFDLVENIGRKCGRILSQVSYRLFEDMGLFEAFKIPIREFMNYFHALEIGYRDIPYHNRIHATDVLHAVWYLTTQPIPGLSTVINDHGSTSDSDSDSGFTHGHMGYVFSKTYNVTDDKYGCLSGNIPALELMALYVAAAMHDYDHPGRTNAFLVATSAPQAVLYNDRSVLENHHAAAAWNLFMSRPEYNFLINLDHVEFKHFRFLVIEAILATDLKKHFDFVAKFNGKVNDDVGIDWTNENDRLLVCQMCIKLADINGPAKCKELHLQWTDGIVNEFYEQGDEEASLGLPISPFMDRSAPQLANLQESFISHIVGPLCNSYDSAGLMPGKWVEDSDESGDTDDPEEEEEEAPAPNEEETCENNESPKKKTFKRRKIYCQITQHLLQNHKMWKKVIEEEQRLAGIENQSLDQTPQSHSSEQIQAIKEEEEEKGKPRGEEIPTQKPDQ

[4] = tested on: PDE 4; conditions: Gibson et al., Eur. J. Pharmacol. 2006; cited from earlier work
[5] = target: PDE 10A1 (Homo sapiens, UniProt Q9Y233); conditions: Gibson et al., Eur. J. Pharmacol. 2006; cited from earlier work
Chain of PDE 10A1 (Q9Y233 1-779 isoform Q9Y233-1): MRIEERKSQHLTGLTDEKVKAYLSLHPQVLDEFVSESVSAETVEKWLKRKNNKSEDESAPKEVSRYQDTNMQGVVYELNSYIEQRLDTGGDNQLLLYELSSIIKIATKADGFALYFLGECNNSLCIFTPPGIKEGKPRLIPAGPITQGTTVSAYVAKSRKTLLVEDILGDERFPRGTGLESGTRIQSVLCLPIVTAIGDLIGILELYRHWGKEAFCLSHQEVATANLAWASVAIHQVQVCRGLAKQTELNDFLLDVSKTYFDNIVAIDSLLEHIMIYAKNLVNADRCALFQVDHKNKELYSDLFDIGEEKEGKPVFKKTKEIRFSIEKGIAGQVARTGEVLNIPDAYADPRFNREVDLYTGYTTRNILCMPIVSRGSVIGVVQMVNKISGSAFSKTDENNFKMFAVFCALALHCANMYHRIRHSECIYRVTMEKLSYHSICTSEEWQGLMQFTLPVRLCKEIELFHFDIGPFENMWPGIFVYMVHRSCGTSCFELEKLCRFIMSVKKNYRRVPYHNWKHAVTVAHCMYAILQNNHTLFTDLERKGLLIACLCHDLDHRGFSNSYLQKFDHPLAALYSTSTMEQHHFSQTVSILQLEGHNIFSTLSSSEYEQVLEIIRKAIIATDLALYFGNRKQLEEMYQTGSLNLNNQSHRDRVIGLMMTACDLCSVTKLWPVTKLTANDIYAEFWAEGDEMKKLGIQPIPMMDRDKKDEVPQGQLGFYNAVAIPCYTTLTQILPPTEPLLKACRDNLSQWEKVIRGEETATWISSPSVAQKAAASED

[6] = target: PDE 11A1 (Homo sapiens, UniProt Q9HCR9); conditions: Gibson et al., Eur. J. Pharmacol. 2006; cited from earlier work
Chain of PDE 11A1 (Q9HCR9 445-933): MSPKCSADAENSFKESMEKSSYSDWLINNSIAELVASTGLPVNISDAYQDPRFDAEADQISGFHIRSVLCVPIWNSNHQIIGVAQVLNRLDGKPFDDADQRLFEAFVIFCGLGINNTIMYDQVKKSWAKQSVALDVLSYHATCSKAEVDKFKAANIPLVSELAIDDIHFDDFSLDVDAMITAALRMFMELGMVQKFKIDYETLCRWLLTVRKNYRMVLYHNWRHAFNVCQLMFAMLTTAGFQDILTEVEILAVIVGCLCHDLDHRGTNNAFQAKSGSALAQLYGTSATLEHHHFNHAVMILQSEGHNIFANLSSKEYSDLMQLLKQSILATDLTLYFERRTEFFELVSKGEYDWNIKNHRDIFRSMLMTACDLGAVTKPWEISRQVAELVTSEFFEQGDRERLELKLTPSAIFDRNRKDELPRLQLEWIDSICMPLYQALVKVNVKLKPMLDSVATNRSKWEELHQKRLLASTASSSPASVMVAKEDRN

[7] = target: toll-like receptor-4 (TLR4) (Homo sapiens, UniProt O00206); conditions: Yang et al., Cell Death and Disease 2016; cited from earlier work
Chain of toll-like receptor-4 (TLR4) (O00206 24-839, species assumed): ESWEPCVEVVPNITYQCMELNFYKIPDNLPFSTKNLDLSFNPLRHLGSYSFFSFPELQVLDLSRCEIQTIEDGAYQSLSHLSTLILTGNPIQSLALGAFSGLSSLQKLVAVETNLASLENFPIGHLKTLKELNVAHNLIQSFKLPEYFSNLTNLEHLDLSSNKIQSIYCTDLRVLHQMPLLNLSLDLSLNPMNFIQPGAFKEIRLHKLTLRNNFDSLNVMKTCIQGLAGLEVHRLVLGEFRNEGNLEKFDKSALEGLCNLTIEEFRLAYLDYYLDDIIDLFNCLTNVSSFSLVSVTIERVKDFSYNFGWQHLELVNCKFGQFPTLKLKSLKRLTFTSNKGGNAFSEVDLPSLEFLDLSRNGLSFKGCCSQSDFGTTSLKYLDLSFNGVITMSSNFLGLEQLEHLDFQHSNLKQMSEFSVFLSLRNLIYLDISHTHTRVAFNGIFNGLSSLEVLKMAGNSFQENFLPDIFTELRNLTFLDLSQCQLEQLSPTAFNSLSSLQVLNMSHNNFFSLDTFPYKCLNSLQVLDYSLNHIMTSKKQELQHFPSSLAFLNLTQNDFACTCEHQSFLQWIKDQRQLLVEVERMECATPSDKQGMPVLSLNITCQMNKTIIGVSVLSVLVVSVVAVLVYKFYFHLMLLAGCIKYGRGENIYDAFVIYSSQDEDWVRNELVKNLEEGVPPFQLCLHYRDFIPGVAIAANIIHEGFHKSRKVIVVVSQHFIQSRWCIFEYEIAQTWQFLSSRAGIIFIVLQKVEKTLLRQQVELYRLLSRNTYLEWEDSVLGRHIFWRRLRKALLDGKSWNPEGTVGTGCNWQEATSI
Chain of toll-like receptor-4 (TLR4) (Q9Y6Y9 17-160 partner limits assumed, species assumed): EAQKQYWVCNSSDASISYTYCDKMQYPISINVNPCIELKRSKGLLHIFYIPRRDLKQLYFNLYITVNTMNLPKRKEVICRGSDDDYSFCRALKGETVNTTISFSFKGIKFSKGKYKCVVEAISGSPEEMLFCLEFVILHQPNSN

[8] = tested on: MIF; assay: plasma level of MIF after ibudilast; conditions: found by the inventors; no data given

CC(C)C(=O)c1c(C(C)C)nn2ccccc12 [ibudilast, 2-methyl-1-(2-(1-methylethyl)pyrazolo(1,5-a)pyridin-3-yl)1-propanone]
inhibition of HPP tautomerase activity of MIF [1]: allosteric inhibitor | CNS penetration [2]: good CNS penetration | inhibition of PDE 3A [3]: selective inhibitor | inhibition of PDE 4 [4]: selective inhibitor | inhibition of PDE 10A1 [5]: selective inhibitor | inhibition of PDE 11A1 [6]: selective inhibitor | TLR4 antagonistic activity [7]: antagonistic activity | plasma level of MIF [8]: lowers

— patent US12042485B2, “Methods of minimizing cancer metastasis” (MEDICINOVA, INC., priority 2021, dated 2024)
